Several values for one entry are separate records, joined by “and”; a condition that tells them apart may be missing. Identical values can stand only once. Records with an inconclusive call do not appear.
Tested on: BDF1 mice, s.c. Lewis lung carcinoma, T/C %
Test: NCI In Vivo Anticancer Drug Screen. Data for tumor model Lewis Lung Carcinoma (subcutaneous) in B6D2F1 (BDF1) mice
Summary of the method: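 Tumor-bearing mice were treated with test compound, and either survival or tumor size was recorded. Values are the treated-group measurement divided by that of the vehicle-treated control group.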

For `C[C@@H]1CC[C@@]2(NC1)O[C@H]1C[C@H]3[C@@H]4CC=C5C[C@@H](O)CC[C@]5(C)[C@H]4CC[C@]3(C)[C@H]1[C@@H]2C`, the T/C (endpoint: mean tumor weight, dose: 12.0 mg/kg/injection, schedule: Q01DX011 (sc), vehicle: steriod suspending solution, higher = larger tumour) was 73 % of control, the T/C (endpoint: mean tumor weight, dose: 16.6 mg/kg/injection, schedule: Q01DX011 (ip), vehicle: carboxymethylcellulose (CMC), higher = larger tumour) was 56 % of control and 59 % of control and 70 % of control and the T/C (endpoint: mean tumor weight, dose: 18.0 mg/kg/injection, schedule: Q01DX011 (sc), vehicle: steriod suspending solution, higher = larger tumour) was 75 % of control. For the same molecule, the T/C (endpoint: mean tumor weight, dose: 40.0 mg/kg/injection, schedule: Q01DX011 (sc), vehicle: steriod suspending solution, higher = larger tumour) was 94 % of control, the T/C (endpoint: mean tumor weight, dose: 50.0 mg/kg/injection, schedule: Q01DX011 (ip), vehicle: carboxymethylcellulose (CMC), higher = larger tumour) was 97 % of control and the T/C (endpoint: mean tumor weight, dose: 54.0 mg/kg/injection, schedule: Q01DX011 (sc), vehicle: steriod suspending solution, higher = larger tumour) was 92 % of control. For the same molecule, the T/C (endpoint: mean tumor weight, dose: 80.0 mg/kg/injection, schedule: Q01DX011 (sc), vehicle: steriod suspending solution, higher = larger tumour) was 119 % of control, the T/C (endpoint: mean tumor weight, dose: 100.0 mg/kg/injection, schedule: Q01DX011 (sc), vehicle: steriod suspending solution, higher = larger tumour) was 83 % of control and the T/C (endpoint: mean tumor weight, dose: 200.0 mg/kg/injection, schedule: Q01DX011 (sc), vehicle: steriod suspending solution, higher = larger tumour) was 58 % of control. The T/C (endpoint: mean tumor weight, dose: 400.0 mg/kg/injection, schedule: Q01DX011 (sc), vehicle: steriod suspending solution, higher = larger tumour) was 104 % of control.

`COc1cc([C@@H]2c3cc4c(cc3[C@@H](OC3OC5COC(C)OC5C(O)C3O)[C@H]3COC(=O)[C@H]23)OCO4)cc(OC)c1O` (some centres not stated) was tested, and the T/C (endpoint: median survival time, dose: 4.0 mg/kg/injection, schedule: Q01DX009 (ip), vehicle: saline, higher = longer survival) was 124 % of control, the T/C (endpoint: median survival time, dose: 20.0 mg/kg/injection, schedule: Q04DX003 (ip), vehicle: saline, higher = longer survival) was 107 % of control and the T/C (endpoint: median survival time, dose: 20.0 mg/kg/injection, schedule: Q04DX003 (sc), vehicle: saline, higher = longer survival) was 124 % of control. The T/C (endpoint: median survival time, dose: 80.0 mg/kg/injection, schedule: Q04DX003 (ip), vehicle: saline, higher = longer survival) was 91 % of control.

For `C=C/C(C)=C/[C@H](C)C(=O)C[C@H](O)CC1CC(=O)NC(=O)C1`, the T/C (endpoint: median survival time, dose: 6.25 mg/kg/injection, schedule: Q01DX009 (ip), vehicle: saline with Tween-80, higher = longer survival) was 95 % of control, the T/C (endpoint: median survival time, dose: 12.5 mg/kg/injection, schedule: Q01DX009 (ip), vehicle: saline with Tween-80, higher = longer survival) was 98 % of control and the T/C (endpoint: median survival time, dose: 12.5 mg/kg/injection, schedule: Q04DX003 (ip), vehicle: saline with Tween-80, higher = longer survival) was 98 % of control. The T/C (endpoint: median survival time, dose: 25.0 mg/kg/injection, schedule: Q01DX009 (ip), vehicle: saline with Tween-80, higher = longer survival) was 97 % of control, the T/C (endpoint: median survival time, dose: 25.0 mg/kg/injection, schedule: Q04DX003 (ip), vehicle: saline with Tween-80, higher = longer survival) was 111 % of control and the T/C (endpoint: median survival time, dose: 50.0 mg/kg/injection, schedule: Q04DX003 (ip), vehicle: saline with Tween-80, higher = longer survival) was 92 % of control. The T/C (endpoint: median survival time, dose: 100.0 mg/kg/injection, schedule: Q04DX003 (ip), vehicle: saline with Tween-80, higher = longer survival) was 101 % of control.

For `CN(C)c1ccc(-c2cc[n+](C)cc2)cc1`, the T/C (endpoint: median survival time, dose: 0.5 mg/kg/injection, schedule: Q01DX009 (ip), vehicle: saline, higher = longer survival) was 103 % of control, the T/C (endpoint: median survival time, dose: 1.0 mg/kg/injection, schedule: Q01DX009 (ip), vehicle: saline, higher = longer survival) was 114 % of control and the T/C (endpoint: median survival time, dose: 2.0 mg/kg/injection, schedule: Q01DX009 (ip), vehicle: saline, higher = longer survival) was 119 % of control. For the same molecule, the T/C (endpoint: median survival time, dose: 3.0 mg/kg/injection, schedule: Q01DX009 (ip), vehicle: saline, higher = longer survival) was 106 % of control and the T/C (endpoint: median survival time, dose: 6.0 mg/kg/injection, schedule: Q01DX009 (ip), vehicle: saline, higher = longer survival) was 103 % of control.

For `CCO/C=C1\SC(=S)N(c2cccc(OC)c2)C1=O`, the T/C (endpoint: median survival time, dose: 50.0 mg/kg/injection, schedule: Q01DX001 (ip), vehicle: Klucel (hydroxypropylcellulose) (HPC), higher = longer survival) was 101 % of control, the T/C (endpoint: median survival time, dose: 100.0 mg/kg/injection, schedule: Q01DX001 (ip), vehicle: Klucel (hydroxypropylcellulose) (HPC), higher = longer survival) was 104 % of control and the T/C (endpoint: median survival time, dose: 200.0 mg/kg/injection, schedule: Q01DX001 (ip), vehicle: Klucel (hydroxypropylcellulose) (HPC), higher = longer survival) was 102 % of control. The T/C (endpoint: median survival time, dose: 400.0 mg/kg/injection, schedule: Q01DX001 (ip), vehicle: Klucel (hydroxypropylcellulose) (HPC), higher = longer survival) was 101 % of control.

For `Cc1cccc(NC(=O)N(CCCl)N=O)c1`, the T/C (endpoint: median survival time, dose: 0.38 mg/kg/injection, schedule: Q01DX009 (ip), vehicle: saline with Tween-80, higher = longer survival) was 96 % of control, the T/C (endpoint: median survival time, dose: 0.75 mg/kg/injection, schedule: Q01DX009 (ip), vehicle: saline with Tween-80, higher = longer survival) was 102 % of control and the T/C (endpoint: median survival time, dose: 3.0 mg/kg/injection, schedule: Q01DX009 (ip), vehicle: saline with Tween-80, higher = longer survival) was 92 % of control.

For `COc1ccccc1NC(=O)N(CCCl)N=O`, the T/C (endpoint: median survival time, dose: 0.39 mg/kg/injection, schedule: Q01DX009 (ip), vehicle: saline with Tween-80, higher = longer survival) was 95 % of control, the T/C (endpoint: median survival time, dose: 0.78 mg/kg/injection, schedule: Q01DX009 (ip), vehicle: saline with Tween-80, higher = longer survival) was 88 % of control and the T/C (endpoint: median survival time, dose: 1.56 mg/kg/injection, schedule: Q01DX009 (ip), vehicle: saline with Tween-80, higher = longer survival) was 93 % of control. For the same molecule, the T/C (endpoint: median survival time, dose: 3.13 mg/kg/injection, schedule: Q01DX009 (ip), vehicle: saline with Tween-80, higher = longer survival) was 98 % of control.

Source: PubChem BioAssay AID270 (DTP/NCI, 2004)
